Data on eight molecules can be found in PubChem BioAssay (NCI).

Among the test systems are IGROV1 ovarian; MDA-MB-231 breast; SK-MEL-5 melanoma; MOLT-4 leukemia; COLO 205 colon; LOX IMVI melanoma; CAKI-1 renal; OVCAR-3 ovarian; NCI-H460 lung; OVCAR-5 ovarian; RXF 393 renal; ACHN renal; MDA-N; HCT-15 colon; HOP-62 NSCLC; HOP-92 NSCLC; NCI-H23 lung; MALME-3M melanoma; PC-3 prostate.
Common to all, as to assay: growth of human tumour cells (NCI), 48 h

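Step 1: Grow cells in 96-well plates. Step 2: Expose to compound for 48 hours at 5 concentrations. Step 3: Interpolate endpoints linearly; if unreached, use highest concentration. TGI: concentration producing complete growth inhibition.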 Some results are limits rather than exact numbers.

For `C=C(C)CCC1C=[N+]([O-])OC(C)(C)C1(C)C` (stereo not drawn), the TGI in the assay with IGROV1 ovarian, in the assay with MDA-MB-231 breast, with SK-MEL-5 melanoma, in the assay with MOLT-4 leukemia, in the assay on COLO 205 colon and with LOX IMVI melanoma was greater than 100 µM throughout. For the same molecule, the TGI in the assay with CAKI-1 renal, with OVCAR-3 ovarian, in the assay with NCI-H460 lung, in the assay with OVCAR-5 ovarian, in the assay with RXF 393 renal and in the assay on ACHN renal was greater than 100 µM throughout. For the same molecule, the TGI with MDA-N, with HCT-15 colon, in the assay with HOP-62 NSCLC and with HOP-92 NSCLC was greater than 100 µM in each case.
Take `CSC(C1c2ccccc2N(C)c2[nH]c(=O)n(C)c(=O)c21)S(=O)(=O)c1ccc(C)cc1` (stereo not drawn): the TGI in the assay on NCI-H23 lung, with IGROV1 ovarian, in the assay on SK-MEL-5 melanoma, in the assay on MOLT-4 leukemia, with COLO 205 colon and with LOX IMVI melanoma was greater than 100 µM each time. For the same molecule, the TGI with CAKI-1 renal, with OVCAR-3 ovarian, in the assay with OVCAR-5 ovarian, in the assay on HCT-15 colon, in the assay on HOP-62 NSCLC and in the assay with HOP-92 NSCLC was greater than 100 µM each time. The molecule also came in with a TGI with MALME-3M melanoma greater than 100 µM.
`CCSc1nc(N/N=C/c2cccs2)c2cnn(CO)c2n1`: the TGI in the assay on NCI-H23 lung came out at 17.3 µM; in the assay with IGROV1 ovarian, 10.7 µM; in the assay with MDA-MB-231 breast it was 54.8 µM; with SK-MEL-5 melanoma, 12.9 µM; in the assay with COLO 205 colon it was 29.7 µM; in the assay on CAKI-1 renal, 13.7 µM. Moreover, the TGI in the assay with OVCAR-3 ovarian came out at 19 µM; with NCI-H460 lung, 18.6 µM; with OVCAR-5 ovarian, 27 µM; with RXF 393 renal, 13.9 µM; with ACHN renal, 22.6 µM; with PC-3 prostate, 21.4 µM. Moreover, the TGI in the assay with HCT-15 colon was 15.7 µM; in the assay with HOP-62 NSCLC, 14.9 µM; with HOP-92 NSCLC, greater than 100 µM; in the assay with MALME-3M melanoma, 26.9 µM.
For `COc1cc(S(=O)(=O)Nc2ccc(-c3csc(N4C(=O)CSC4c4ccccc4O)n3)cc2)ccc1Cl` (stereo not drawn), the TGI is greater than 100 µM in the assay on NCI-H23 lung; greater than 100 µM in the assay on IGROV1 ovarian; greater than 100 µM in the assay with SK-MEL-5 melanoma; greater than 100 µM in the assay with MOLT-4 leukemia; 61.1 µM in the assay with COLO 205 colon; greater than 100 µM with LOX IMVI melanoma. In addition, the TGI with CAKI-1 renal was greater than 100 µM; with OVCAR-3 ovarian, greater than 100 µM; in the assay on NCI-H460 lung, 52.8 µM; with OVCAR-5 ovarian, greater than 100 µM; with ACHN renal, greater than 100 µM; with PC-3 prostate, greater than 100 µM. The TGI in the assay on MDA-N was greater than 100 µM; in the assay on HCT-15 colon, greater than 100 µM; in the assay on HOP-62 NSCLC it was greater than 100 µM; in the assay with HOP-92 NSCLC, 82.1 µM; in the assay with MALME-3M melanoma, greater than 100 µM.
In the case of `CC(=O)[C@@]1(c2ccccc2)CC2(CCN(C)CC2)O[C@H]1C`, the TGI in the assay with NCI-H23 lung, in the assay on IGROV1 ovarian, in the assay with MDA-MB-231 breast, in the assay on SK-MEL-5 melanoma, in the assay with MOLT-4 leukemia and with COLO 205 colon was greater than 100 µM in each case. Further, the TGI with LOX IMVI melanoma, in the assay with CAKI-1 renal, with OVCAR-3 ovarian, with NCI-H460 lung, in the assay on OVCAR-5 ovarian and with RXF 393 renal was greater than 100 µM in each case. Further, the TGI in the assay on ACHN renal, with MDA-N, with HCT-15 colon, with HOP-62 NSCLC, in the assay with HOP-92 NSCLC and in the assay with MALME-3M melanoma was greater than 100 µM throughout.
Consider `COc1ccc(-c2cc(-c3ccc(Nc4ccnc5cc(Cl)ccc45)cc3)[nH]c(=O)c2C#N)cc1`, for which the TGI in the assay on NCI-H23 lung, in the assay on IGROV1 ovarian, with MDA-MB-231 breast, in the assay with MOLT-4 leukemia, in the assay on COLO 205 colon and in the assay on LOX IMVI melanoma was greater than 100 µM throughout. In addition, the TGI in the assay on CAKI-1 renal, with OVCAR-3 ovarian, in the assay on NCI-H460 lung, in the assay with OVCAR-5 ovarian, in the assay on RXF 393 renal and in the assay with ACHN renal was greater than 100 µM throughout. Further, the TGI with PC-3 prostate, in the assay with HCT-15 colon, with HOP-62 NSCLC, with HOP-92 NSCLC and in the assay on MALME-3M melanoma was greater than 100 µM each time.
For `CC(=O)NC(C)(C)C1CCC(C)CC1` (stereo not drawn), the TGI in the assay with NCI-H23 lung, in the assay on IGROV1 ovarian, in the assay with MDA-MB-231 breast, with SK-MEL-5 melanoma, with MOLT-4 leukemia and in the assay on COLO 205 colon was greater than 100 µM in each case. In addition, the TGI with LOX IMVI melanoma, in the assay on CAKI-1 renal, in the assay with OVCAR-3 ovarian, in the assay on NCI-H460 lung, in the assay on OVCAR-5 ovarian and in the assay with RXF 393 renal was greater than 100 µM in each case. The TGI in the assay with ACHN renal, in the assay on PC-3 prostate, in the assay with MDA-N, in the assay with HCT-15 colon, in the assay on HOP-62 NSCLC and in the assay on MALME-3M melanoma was greater than 100 µM each time.
Take `Cc1nc2ccc(NC3OCC(O)C(O)C3O)cc2c(=O)n1-c1ccccc1` (stereo not drawn): the TGI with NCI-H23 lung, in the assay on IGROV1 ovarian, with MDA-MB-231 breast, in the assay with SK-MEL-5 melanoma, in the assay with MOLT-4 leukemia and with COLO 205 colon was greater than 100 µM each time. In addition, the TGI with LOX IMVI melanoma, in the assay with CAKI-1 renal, with OVCAR-3 ovarian, in the assay with NCI-H460 lung, in the assay on OVCAR-5 ovarian and in the assay with RXF 393 renal was greater than 100 µM in each case. For the same molecule, the TGI in the assay on ACHN renal, in the assay on PC-3 prostate, with MDA-N, with HCT-15 colon, with HOP-62 NSCLC and with MALME-3M melanoma was greater than 100 µM throughout.
